Measured values: patent US9358239B2, “NiSOD-like compound and its derivatives for suppressing abnormal protein aggregation, recovering cell viability, increasing mature neuron number and neurite outgrowth length and protecting dopaminergic cells by reducing oxidative stress or reactive oxygen species in brain tissues” (National Taiwan Normal University, priority 2012, dated 2016)

Assays:
ATXN3/Q75 aggregation = assay: ATXN3/Q75-GFP aggregation, high-content analysis in Flp-In 293 cells; assay type: cell-based, human; settings: at 100 nM
From the text: For therapies toward the polyQ diseases, we aimed to screen compounds potentially inhibiting polyQ aggregation. As removal of the N-terminal ATXN3 was required for ATXN3 aggregation, GFP-tagged ATXN3/Q14-75 C-terminal fragment was cloned to establish Flp-In 293 cells with inducible ATXN3/Q14-75-GFP expression. Refer to FIG. 2. The GFP antibody detected 40˜57 kDa ATXN3/Q14-75-GFP proteins in doxycycline (+Dox) induced ATXN3 cells. Refer to FIGS. 3A and 3B. While the expressed ATXN3/Q14 was primarily diffused, the expressed ATXN3/Q75-GFP formed aggregates. For high content aggregation analysis, these ATXN3/Q75 cells were seeded onto 96-well plate, treated with tested compounds WCt003, WCt006 and WCt021 for 8 hours, and doxycycline was added to induce ATXN3/Q75-GFP expression for 6 days. Oxaliplatin (5 μM, Sigma) was added for aggregate accumulation through inhibition of DNA synthesis. Then cells were stained with Hochest 33342 (0.1 μg/ml, Sigma) and aggregation percentage was assessed by high-content analysis (HCA) system, with excitation/emission wavelengths at 482/536 (GFP).
Refer to FIG. 4. Cells expressing ATXN3/Q75 were examined with tested compounds WCt003, WCt006 and WCt021. […] WCt003 and WCt006 reduced the ATXN3/Q75 aggregation to 80% to 84% at 10 nM and 100 nM, and WCt021 reduced the ATXN3/Q75 aggregation to 80% to 84% at 1 nM to 100 nM. […]

[1] = DPPH free radical scavenging assay; assay type: biochemical; settings: absorbance at 517 nm
From the text: For DPPH (1,1-diphenyl-2-picryl hydrazyl) scavenging activity, the odd electron in the stable DPPH free radical gives a strong absorption maximum at 517 nm and is purple in color. The DPPH assay measured scavenging ability of the antioxidants towards the stable radical. The free radical DPPH was reduced when it reacted with antioxidants and results in decrease in absorbance at 517 nm. The degree of discoloration indicated the scavenging potential of the antioxidant compounds. Refer to FIG. 7.

[2] = SOD Assay Kit-WST, SOD(-like) activity; assay type: biochemical; settings: WST-1 reduction
From the text: For SOD activity, SOD enzyme from human erythrocytes (Sigma, catalog number 59636) and HEK-293 cell lysate (5×10^6/ml) were used as comparison. The SOD Assay Kit-WST from Dojindo was used to determine SOD activity. The assay utilizes WST-1 [2-(4-iodophenyl)-3-(4-nitrophenyl)-5-(2,4)-disulfophenyl-2H-tetrazolium, monosodium salt] that produces a water-soluble formazan dye upon reduction with the superoxide anion. The rate of the reduction of WST-1 with O2^− was linearly related to the xanthine oxidase (XO) activity, and this reduction was inhibited by SOD. Therefore, the IC50 (50% inhibition activity of SOD or SOD-like materials) can be determined by the colorimetric method. Refer to FIG. 6A. […] Refer to FIG. 6B. […] Refer to FIG. 6C.

With `O=C(CCCCCCC(=O)Nc1ccccc1)NO` [SAHA, suberoylanilide hydroxamic acid] the “ATXN3/Q75 aggregation as compared to untreated cells” value (ATXN3/Q75 aggregation) was 85%.
`O=c1c(O)c(-c2ccc(O)cc2)oc2cc(O)cc(O)c12` [kaempferol, reference compound] showed an EC50 [1] of 26.7 µM.
For “SOD enzyme from human erythrocytes: SOD enzyme from human erythrocytes (Sigma), used as comparison”, the “IC50 (SOD activity)” value [2] was 0.38 U/ml.
